Tests used:
[1] = system: endothelial cells of the BBB; details: cited from earlier work
[2] = target: Hamster recombinant full length PrP (Mesocricetus auratus, UniProt P04273); assay type: biochemical
PrP^res = system: PrP^res; set-up: species or system C57BL/6 mice; details: mouse, in vivo
in vitro = details: mouse, cerebellar granule neurons

Hamster recombinant full length PrP, sequence (P04273 23-254 limits assumed): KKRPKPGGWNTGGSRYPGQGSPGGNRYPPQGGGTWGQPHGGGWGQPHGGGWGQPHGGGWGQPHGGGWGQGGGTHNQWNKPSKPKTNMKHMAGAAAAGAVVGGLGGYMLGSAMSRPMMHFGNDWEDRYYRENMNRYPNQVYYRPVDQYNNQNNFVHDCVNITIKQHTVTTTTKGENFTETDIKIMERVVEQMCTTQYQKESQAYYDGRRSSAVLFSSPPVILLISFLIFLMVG

Molecule	toxicity on endothelial cells of the BBB [1]	concentration of maximum effect on lag phase [2] [µM]	lag phase (time for the reaction to start) [2]	PrP^res accumulation in brain (difference between the groups) (PrP^res)	MCC at 72 h (in vitro) [µM]
trimethyl-β-cyclodextrin [TRIMEB]	more toxic than α-cyclodextrin				
COC[C@H]1O[C@@H]2O[C@H]3[C@H](O)[C@@H](OC)[C@@H](O[C@H]4[C@H](O)[C@@H](OC)[C@@H](O[C@H]5[C@H](O)[C@@H](OC)[C@@H](O[C@H]6[C@H](O)[C@@H](OC)[C@@H](O[C@H]7[C@H](O)[C@@H](OC)[C@@H](O[C@H]8[C@H](O)[C@@H](OC)[C@@H](O[C@H]1[C@H](O)[C@H]2OC)O[C@@H]8COC)O[C@@H]7COC)O[C@@H]6COC)O[C@@H]5COC)O[C@@H]4COC)O[C@@H]3COC [DIMEB, heptakis(2,6-O-dimethyl)beta-cyclodextrin]		100	significantly increased	did not show any difference	> 500
